PMC7083937, “The ribosome-associated complex RAC serves in a relay that directs nascent chains to Ssb” (Nature Communications, 2020)

T1: ScSsz1-Zuo1N complex (Saccharomyces cerevisiae, UniProt P32527+P38788)
T1 construct: His6-SUMO (N); made in house
T1 sequence (P38788 1-538): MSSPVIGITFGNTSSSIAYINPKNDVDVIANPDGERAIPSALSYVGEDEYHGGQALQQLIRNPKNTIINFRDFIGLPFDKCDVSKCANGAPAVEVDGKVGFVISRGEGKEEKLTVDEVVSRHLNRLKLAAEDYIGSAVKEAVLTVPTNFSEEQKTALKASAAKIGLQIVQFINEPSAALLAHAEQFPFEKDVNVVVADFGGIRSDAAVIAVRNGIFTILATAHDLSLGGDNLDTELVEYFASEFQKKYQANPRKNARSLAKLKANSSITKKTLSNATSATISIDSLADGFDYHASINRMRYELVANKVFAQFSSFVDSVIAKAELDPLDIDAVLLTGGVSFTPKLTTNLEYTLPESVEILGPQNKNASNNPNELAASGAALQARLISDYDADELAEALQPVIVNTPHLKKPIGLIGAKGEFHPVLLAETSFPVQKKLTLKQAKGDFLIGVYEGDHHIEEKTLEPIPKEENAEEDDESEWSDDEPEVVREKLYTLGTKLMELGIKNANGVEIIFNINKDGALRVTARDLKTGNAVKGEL
T1 sequence (P32527 1-50 partner): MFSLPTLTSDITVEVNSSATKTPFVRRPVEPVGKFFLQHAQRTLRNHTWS

B1: Ssz1-Zuo1NΔLP: ScSsz1 with ScZuo1NΔLP (residues 10-50) lacking the LP-motif (protein)
chain 1: T1 sequence (P38788 1-538)
chain 2: DITVEVNSSATKTPFVRRPVEPVGKFFLQHAQRTLRNHTWS
modifications: left off: His6-SUMO, N-terminal, state not stated | His6-MBP, N-terminal, cleaved
notes: ScSsz1 with ScZuo1NΔLP (residues 10-50) lacking the LP-motif

How the values were obtained:
[1] = biological target: T2, ScSsz1-Zuo1NΔLP complex (Saccharomyces cerevisiae, UniProt P32527+P38788); format: binding; settings: fluorescence anisotropy; N-terminally fluorescein-labelled peptide, 40 nM mixed 1:1 with protein; pH 7.5, 200 mM KCl; 30 min, room temperature; Ssz1-Zuo1NΔLP
T2 construct: His6-SUMO (N); made in house
Protocol: (§1) 1 µM BSA was added to prevent unspecific binding of the fluorescently labelled peptide to the microplate (Greiner Bio-One opaque 384 well plate). Fluorescence anisotropy measurements were performed using the LP-peptide (MFSLPTL) or the NR-peptide (NRLLLTG) labelled at the N terminus with fluorescein (Peptide Specialty Laboratories GmbH, Heidelberg). Two-fold serial dilutions of each protein (ScSsz1-Zuo1N or ScSsz1-Zuo1NΔLP) were mixed in a 1:1 ratio with 40 nM peptides in anisotropy buffer in 384-well opaque plates (Greiner Bio One) and were incubated at room temperature for 30 min. Measurements were performed in triplicate using a plate reader (SpectraMax M5e Multi Mode Microplate reader, Molecular Devices). To determine the binding constant (KD) the data were fitted to a one-site binding equation using Python[57].
(§2) Ssz1-Zuo1NΔLP Ssz1-Zuo1NΔLP
(§3) Supplementary Figure 6. Figure S6
(§4) An al ysi s o f su b strate b in di ng to ScRAC co re vari ants b y fl uo rescen ce an i so trop y.
(§5) (a) Binding curves of the fluorescently labeled LP-pept ide or (b ) NR-peptide to Ssz1-Zuo1N (circle) or
(§6) Ssz1-Zuo1NDLP (square) are shown. The mean and standard deviation from three technical replicates
(§7) is indicated. Source data are provided as a Source Data file.

[2] = biological target: T1, ScSsz1-Zuo1N complex; assay: fluorescence anisotropy peptide binding; settings: N-terminally fluorescein-labelled peptide, 40 nM mixed 1:1 with protein, pH 7.5, 200 mM KCl, 30 min, room temperature, Ssz1-Zuo1N
Protocol: as §1, §2, §3, §4, §5, §6, §7

[3] = biological target: ATP-bound DnaK; settings: read-out: affinity for ATP-bound DnaK, low-affinity state; cited from earlier work
[4] = system: Ssz1 in RAC-ΔN8; assay: peptide competition with nascent chain crosslinking (XL-Ssz1); format: biochemical, Saccharomyces cerevisiae
Source text: Fig. 3 Nascent chain binding to the Ssz1-SBD is modulated by the N-terminus of Zuo1. a Amino acid sequence of the ScZuo1N. Arrows indicate the positions of truncations in Zuo1-ΔN8, Zuo1-ΔN16, and Zuo1-ΔN49. The color code is as in Fig. 2a. The secondary structure derived from the crystal structure is depicted above. b The Zuo1N LP-motif interferes with the contact of nascent Pgk1-100 with Zuo1 and Ssz1. Ribosome-free extracts obtained from Δssb1Δssb2 (Zuo1, Ssz1), Δssb1Δssb2 RAC-ΔN8 (ΔN8, Ssz1), or Δssb1Δssb2 RAC-ΔN16 (ΔN16, Ssz1) strains (upper panel) were added to RNCs from Δssb1Δssb2Δzuo1Δssz1 translation extract prior to crosslinking. Crosslink products between Zuo1 and nascent Pgk1-100 (XL-Zuo1) and Ssz1 and nascent Pgk1-100 (XL-Ssz1), respectively. c, d Quantification of crosslinking between nascent Pgk1-100 and Zuo1 (c) and Ssz1 (d). Autoradiographs as shown in (b) were employed for the quantification of nascent Pgk1-100 and the crosslink products XL-Zuo1 and XL-Ssz1. Values were normalized as described in Methods. The efficiency of crosslinking is given as a percentage of nascent Pgk1-100 present in the reaction. Experiments were performed in triplicate, with the exception of the XL-Zuo1-ΔN8 (shown in c), which was performed only once. Shown is the mean (bars) and the result of each biologically independent experiment (dots). Error bars indicate the standard deviation of the mean. e Crosslinking of the nascent chain to Ssz1 requires a functional peptide binding groove. Ribosome-free extracts from Δssb1Δssb2 RAC-ΔN8 (Zuo1-ΔN8, Ssz1) or Δssb1Δssb2 RACmut-ΔN8 (Zuo1-ΔN8, Ssz1mut) (upper panel) was added to RNCs generated in Δssb1Δssb2Δzuo1Δssz1 translation extract as described in Fig. 1b. […] RNCs were generated in a Δssb1Δssb2Δzuo1Δssz1 translation extract and ribosome-free extract from Δssb1Δssb2 RAC-ΔN8 (Zuo1-ΔN8, Ssz1) was added. […]
(§8) Chemical crosslinking of ribosome-bound nascent chains to Ssb, Zuo1, or Ssz1 was analyzed essentially as described. […] Samples were analyzed on Tris-Tricine gels[56] followed by autoradiography. […]

[5] = system: Zuo1-ΔN8; assay: peptide competition with nascent chain crosslinking (XL-Zuo1); format: biochemical, Saccharomyces cerevisiae; settings: RNCs Pgk1-100, RAC-ΔN8, Δssb; peptide added prior to 400 µM BS3 crosslinking, 5 or 50 µM
Source text: Fig. 3 Nascent chain binding to the Ssz1-SBD is modulated by the N-terminus of Zuo1. a Amino acid sequence of the ScZuo1N. Arrows indicate the positions of truncations in Zuo1-ΔN8, Zuo1-ΔN16, and Zuo1-ΔN49. The color code is as in Fig. 2a. The secondary structure derived from the crystal structure is depicted above. b The Zuo1N LP-motif interferes with the contact of nascent Pgk1-100 with Zuo1 and Ssz1. Ribosome-free extracts obtained from Δssb1Δssb2 (Zuo1, Ssz1), Δssb1Δssb2 RAC-ΔN8 (ΔN8, Ssz1), or Δssb1Δssb2 RAC-ΔN16 (ΔN16, Ssz1) strains (upper panel) were added to RNCs from Δssb1Δssb2Δzuo1Δssz1 translation extract prior to crosslinking. Crosslink products between Zuo1 and nascent Pgk1-100 (XL-Zuo1) and Ssz1 and nascent Pgk1-100 (XL-Ssz1), respectively. c, d Quantification of crosslinking between nascent Pgk1-100 and Zuo1 (c) and Ssz1 (d). Autoradiographs as shown in (b) were employed for the quantification of nascent Pgk1-100 and the crosslink products XL-Zuo1 and XL-Ssz1. Values were normalized as described in Methods. The efficiency of crosslinking is given as a percentage of nascent Pgk1-100 present in the reaction. […]
as §8

[6] = nanoDSF thermal stability of RAC core complexes; format: physicochemical, Saccharomyces cerevisiae; settings: 20 mM Hepes/KOH pH 7.5, 200 mM KCl, 5 mM MgCl2, 1 mM DTT, 20 to 90 °C at 1.5 °C/min, 330/350 nm, no peptide, three measurements shown
Protocol: (§9) The melting temperature of ScSsz1-Zuo1N, ScSsz1-Zuo1NΔLP or ScSsz1mut-Zuo1NΔLP with or without the LP-peptide (Peptide Specialty Laboratories GmbH, Heidelberg) were determined using the Prometheus NT.48 nanoDSF system using nano-DSF grade capillaries (NanoTemper Technologies GmbH). The measurements were performed in 20 mM Hepes/KOH pH 7.5, 200 mM KCl, 5 mM MgCl2, 1 mM DTT. The LP-peptide, which was dissolved in DMSO, was pre-diluted in the above buffer such that the final DMSO concentration in the experiment was below 0.5%. DMSO diluted in the same way was added to the negative control. Intrinsic protein fluorescence was measured continuously at 330 nm and 350 nm with a temperature gradient ranging from 20 to 90 °C at a rate of 1.5 °C/min. […]
(§10) (a-b) NanoDSF analysis of Ssz1-Zuo1N (blue) and Ssz1-Zuo1NDLP (orange) in a and Ssz1-Zuo1NDLP wit hout t he LP-pept ide (orange) or wit h t he LP-pept ide (blue) in b. Three measurements are shown.
(§11) Source data are provided as a Source Dat a f ile.
(§12) (c) Residues (L439S/K440P/I448F/G495K) mutated in Ssz1mut to block substrate binding to Ssz1-SBDb (cyan) are in stick representation (upper panel). Zuo1N is shown in orange a nd the LP-motif in yellow. Multiple sequence alignment of Hsp70 homologs (lower panel) wit h the mutations highlighted in yellow. The alignment is colored as in Fig. 2a. […]

[7] = system: ScSsz1-Zuo1NΔLP; assay: nanoDSF melting temperature with/without LP-peptide; format: binding, Saccharomyces cerevisiae; settings: DMSO negative control (<0.5%), pH 7.5, 200 mM KCl, 20 to 90 °C at 1.5 °C/min, three measurements shown
Protocol: as §9, §10, §11, §12

| Molecule | affinity [1] | affinity [2] | Kd [3] | displacement of nascent chain ([4]; 50 µM peptide, ribosome-bound nascent chain) | effect on nascent chain crosslinking to Ssz1 (XL-Ssz1) ([4]; RNCs Pgk1-100, RAC-ΔN8, Δssb, peptide added prior to 400 µM BS3 crosslinking, 5 or 50 µM) | displacement compared with LP-peptide ([4]; ribosome-bound nascent chain, 50 µM peptide) | effect on nascent chain crosslinking to Zuo1-ΔN8 (XL-Zuo1) [5] | melting temperature (thermal stability of RAC core complex) [6] | melting temperature of Ssz1-Zuo1NΔLP without LP-peptide [7] |
| --- | --- | --- | --- | --- | --- | --- | --- | --- | --- |
| NRLLLTG [NR-peptide, NRLLLTG peptide, serves as an Hsp70 model substrate] | below the detection limit | below the detection limit | 23.8 ± 3.8 µM | partly displaced | to a lesser extent also NR-peptide, significantly reduced crosslinking of the nascent chain to Ssz1 | significantly lower | Neither of the peptides added prior to the crosslinking reaction affected nascent chain crosslinking to Zuo1-ΔN8 |  |  |
| B1 |  |  |  |  |  |  |  | 39.7 °C | 40.3 °C |
